The conditions of series [1]: every other day (qod), previously-established; cited from earlier work.
Series [2] is described as follows: Dose escalation, MTD/DLT and adverse events of SNX-5422 with carboplatin and paclitaxel in patients. Format: in vivo, human. Conditions: SNX-5422 qod in combination with carboplatin (AUC 5) and paclitaxel (175 mg/m^2). The text has this:
The performed dosing schedule is disclosed in FIG. 1. SNX-5422 dose was escalated as follows.

Molecules are shown by their SMILES.

Take `CC1(C)CC(=O)c2c(C(F)(F)F)nn(-c3ccc(C(N)=O)c(N[C@H]4CC[C@H](OC(=O)CN)CC4)c3)c2C1` [SNX-5422, trans-4-{(2-(aminocarbonyl)-5-[6,6-dimethyl-4-oxo-3-(trifluoromethyl)-4,5,6,7-tetrahydro-1H-indazol-1-yl]phenyl}amino)cyclohexyl glycinate]: in series [1], the “single agent MTD” value is on record as 100 mg/m^2. The “Maximum Tolerated Dose” value in series [2] was determined as 100 mg/m^2.

Source of the values: patent US20190134003A1, “COMBINATION THERAPIES USING INDAZOLYLBENZAMIDE DERIVATIVES FOR THE TREATMENT OF CANCER” (ESANEX, INC., priority 2016, published 2019).
